Experiments:
[1] = Binding constant with Fe^2+ ions by UV/Vis titration
Description: (§1) The association of tryptanthrin derivatives with ferrous and ferric ions was studied by UV/Vis spectroscopy in aqueous solution (water/DMSO, 99:1, v/v). […] Association constants (K) were calculated from absorbance changes (AA) in the spectral maximum of the derivative and in the spectral maximum of its complexes with Fe^2+/3+ ions by regression analysis. The concentration of tryptanthrin derivatives was 100 μM. The concentration of Fe^2+ and Fe^3+ ions fluctuated in the range of 0-5 mM. UV/Vis spectra were measured with a Shimadzu spectrophotometer in the range 220-900 nm with a step of 1 nm in a 1 cm plastic cuvette at a scanning speed of 300 nm.min^-1. The effect of different concentrations of Fe ions on the absorbance of substance 1 (PAA-TSC) is shown in FIGS. 5 and 6; that for substance 5 […]-TSC) in FIGS. 7 and 8.

[2] = Binding constant with Fe^3+ ions by UV/Vis titration
Description: as §1

SARS-COV-2 = assay: Antiviral effect: SARS-COV-2 RNA production in infected Vero cells (RT-qPCR of E-gene); type: cell-based; details: Vero in vitro model; 0-10 μM; 24 and 48 hours
Description: The cells in question (Vero cell line from African green monkey kidney; 1.5×10^5 cells per well) were infected with a SARS-COV-2 isolate provided by the Bioconservation Section of Techonin. The infectious inoculum contained 2.38×10^7 copies of the SARS-COV-2 E-gene. After 1 h inoculation, cells were supplemented with 1 ml of Dulbecco's modified Eagle's medium containing 2% fetal bovine serum (2% FBS-DMEM) and increasing concentrations (0-10 μM) of tryptanthrin derivatives 1 (PAA-TSC) and 5 (T8H-TSC), resp. After 24 and 48 hours of incubation, the growth of SARS-COV-2 was characterized in an aliquot of the culture supernatant by one-step RT-qPCR.
Viral RNA was isolated from 200 μl culture supernatant using magnetic beads. SARS-CoV-2 RNA was quantified by amplifying the E-gene of SARS-COV-2 (Generi Biotech) using the SensiFast Probe One-Step Kit (BioLine) and Light Cycler 480 II (Roche) using absolute quantification and calibration curve.

[3] = Interaction of tryptanthrin derivatives with transition metal ions (UV/Vis spectroscopy); type: binding; details: receptor 100 μM, ion 5000 μM
Description: First, the interaction of tryptanthrin derivatives 1 and 5 with metal ions was studied using UV/Vis spectroscopy. The receptor concentration was 100 μM and the ion concentration was 5000 μM.

RNA = assay: Interaction with RNA by UV/Vis titration; type: binding
DNA from salmon sperm = assay: Interaction with DNA by UV/Vis titration; type: binding
[4] = stoichiometry (ion:ligand) 1:1, water/DMSO 99:1, derivative 100 μM
[5] = stoichiometry (NK:ligand) 1:2, phosphate buffer pH 7.00

Row | Compound | Log (K) association constant [1, 4] | Log (K) association constant [2, 4] | Log (K) association constant ([2]; stoichiometry (ion:ligand) 1:2, water/DMSO 99:1, derivative 100 μM) | inhibition of virus particle / CoV-2 RNA production (SARS-COV-2) | absorbance changes after addition of metal ions (selectivity for Fe^2+/Fe^3+) [3] | Log (K) association constant (RNA; stoichiometry (NK:ligand) 2:1, phosphate buffer pH 7.00) | Log (K) association constant (DNA from salmon sperm; stoichiometry (NK:ligand) 1:1, phosphate buffer pH 7.00) | Log (K) association constant ([1]; stoichiometry (ion:ligand) 2:1, water/DMSO 99:1, derivative 100 μM) | Log (K) association constant (RNA; [5]) | Log (K) association constant (DNA from salmon sperm; [5])
1 | CC(CC1(O)c2ccccc2-n2c1nc1ccccc1c2=O)=NNC(N)=S (mixture of isomers) [derivative 1] | 1.5 | 6.0 | 10.2 | inhibition of virus particle production | significant absorbance changes were observed only in the case of ferrous and ferric ions | 8.7 | 7.4 | – | – | –
2 | NC(=S)NN=C1c2ccccc2-n2c1nc1ccccc1c2=O [derivative 5] | 4.9 | – | – | inhibition of viral particle production | significant absorbance changes were observed only in the case of ferrous and ferric ions | – | – | 7.1 | 7.3 | 6.0

Source: US20250171449A1, “TRYPTANTHRIN DERIVATIVES WITH THIOSEMICARBAZONE SUBSTITUTION AND USE THEREOF” (UNIVERZITA KARLOVA, priority 2022, published 2025)
